One experiment has as its target mGluR5 (Homo sapiens, UniProt P41594). The experiment in a line: Radioligand binding assay, [3H]MPEP filtration binding to membrane homogenates. Particulars: 5 nM [3H]MPEP; Ki calculated from IC50 by Cheng-Prusoff. On the procedure:
Binding assays were performed as described in [J. A. O'Brien et al. Mol. Pharmacol., 2003, 64, 731-740] with slight modifications. Briefly, after thawing, the membrane homogenates were resuspended in 50 mM Tris-HCl, 0.9% NaCl binding buffer at pH 7.4 to a final assay concentration of 40 μg protein/well for [^3H]methoxy-5-(2-pyridinylethynyl)pyridine ([^3H] MPEP) (American Radiolabeled Chemicals, Inc., St. Louis, Mo.) filtration binding. Incubations included 5 nM [^3H] MPEP, membranes and either buffer or varying concentrations of compound. Samples were incubated for 60 min at room temperature with shaking. Non-specific binding was defined with 10 μM MPEP. After incubation, samples were filtered over a GF/C filter (presoaked in 0.25% polyethyleneimine (PEI)) and then washed 4 times using a Tomtec® Harvester 96® Mach III cell harvester (Tomtec, Hamden, Conn.) with 0.5 mL ice-cold 50 mM Tris-HCl (pH 7.4).
IC50 values were derived from the inhibition curve and Ki values were calculated according to the Cheng and Prusoff equation of Ki=IC50/(1+[L]/Kd) described in [Y. Cheng and W. H. Prusoff Biochem. Pharmacol. 1973, 22, 3099-3108] where [L] is the concentration of radioligand and Kd is its dissociation constant at the receptor, derived from the saturation isotherm.

Experiment [1] concerns the target T1, rat metabotropic glutamate receptor 5 (mGluR5) (Rattus norvegicus, UniProt P31424).
T1 construct: expressed in transfected cells; host or cells: HEK 293
The experiment in a line: Calcium mobilization assay (FLIPR) for negative or positive allosteric activity, HEK 293 cells. The class given is cell-based. Conditions: HEK293, negative allosteric modulation, inhibition of EC80 glutamate response; read-out: FLIPR maximum inhibition. The method, boiled down:
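Peak Fluo-4 calcium signal over 3 min at room temperature, minus basal, fitted by Hill equation, in stable rat mGluR5 HEK 293 cells (HBSS/HEPES pH 7.4, BSA, probenecid). Inhibition scored against EC80 glutamate, potentiation against EC20 glutamate, glutamate given with compound.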

The values that follow come from patent US8716284B2, “Adamantyl diamide derivatives and uses of same” (H. Lundbeck A/S, priority 2008, dated 2014).

SMILES strings stand for the structures.

T1 sequence (P31424 21-1171 isoform P31424-2 limits assumed): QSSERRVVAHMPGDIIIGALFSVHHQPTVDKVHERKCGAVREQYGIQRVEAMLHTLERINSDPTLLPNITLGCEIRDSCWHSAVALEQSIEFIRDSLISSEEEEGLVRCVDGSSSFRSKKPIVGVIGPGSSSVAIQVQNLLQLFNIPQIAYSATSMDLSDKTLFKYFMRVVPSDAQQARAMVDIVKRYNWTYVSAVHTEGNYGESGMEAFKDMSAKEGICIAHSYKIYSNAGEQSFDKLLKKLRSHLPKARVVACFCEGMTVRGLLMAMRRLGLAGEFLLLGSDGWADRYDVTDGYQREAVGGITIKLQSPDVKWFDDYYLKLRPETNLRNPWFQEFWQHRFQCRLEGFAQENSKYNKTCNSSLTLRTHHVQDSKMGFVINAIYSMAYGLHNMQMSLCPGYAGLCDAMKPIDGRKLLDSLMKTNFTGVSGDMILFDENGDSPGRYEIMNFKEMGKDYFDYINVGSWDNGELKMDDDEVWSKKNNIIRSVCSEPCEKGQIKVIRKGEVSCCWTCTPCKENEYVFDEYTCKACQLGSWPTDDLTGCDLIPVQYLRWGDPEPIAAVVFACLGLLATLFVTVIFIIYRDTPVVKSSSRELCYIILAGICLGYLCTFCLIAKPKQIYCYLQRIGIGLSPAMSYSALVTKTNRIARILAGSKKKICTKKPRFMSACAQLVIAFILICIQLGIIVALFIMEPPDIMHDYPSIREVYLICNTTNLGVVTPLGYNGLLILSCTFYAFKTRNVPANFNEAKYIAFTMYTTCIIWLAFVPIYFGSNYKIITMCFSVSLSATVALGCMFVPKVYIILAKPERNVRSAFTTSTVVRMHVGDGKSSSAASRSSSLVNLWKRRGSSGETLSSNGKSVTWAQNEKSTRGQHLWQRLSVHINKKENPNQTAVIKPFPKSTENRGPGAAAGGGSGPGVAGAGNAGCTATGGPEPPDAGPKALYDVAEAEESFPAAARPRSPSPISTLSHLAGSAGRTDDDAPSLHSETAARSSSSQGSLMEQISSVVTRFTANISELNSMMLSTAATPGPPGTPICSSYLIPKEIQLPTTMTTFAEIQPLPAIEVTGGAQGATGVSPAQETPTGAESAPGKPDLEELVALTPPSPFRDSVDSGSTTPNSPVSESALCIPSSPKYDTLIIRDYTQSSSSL
Chain of mGluR5 (P41594 21-1212): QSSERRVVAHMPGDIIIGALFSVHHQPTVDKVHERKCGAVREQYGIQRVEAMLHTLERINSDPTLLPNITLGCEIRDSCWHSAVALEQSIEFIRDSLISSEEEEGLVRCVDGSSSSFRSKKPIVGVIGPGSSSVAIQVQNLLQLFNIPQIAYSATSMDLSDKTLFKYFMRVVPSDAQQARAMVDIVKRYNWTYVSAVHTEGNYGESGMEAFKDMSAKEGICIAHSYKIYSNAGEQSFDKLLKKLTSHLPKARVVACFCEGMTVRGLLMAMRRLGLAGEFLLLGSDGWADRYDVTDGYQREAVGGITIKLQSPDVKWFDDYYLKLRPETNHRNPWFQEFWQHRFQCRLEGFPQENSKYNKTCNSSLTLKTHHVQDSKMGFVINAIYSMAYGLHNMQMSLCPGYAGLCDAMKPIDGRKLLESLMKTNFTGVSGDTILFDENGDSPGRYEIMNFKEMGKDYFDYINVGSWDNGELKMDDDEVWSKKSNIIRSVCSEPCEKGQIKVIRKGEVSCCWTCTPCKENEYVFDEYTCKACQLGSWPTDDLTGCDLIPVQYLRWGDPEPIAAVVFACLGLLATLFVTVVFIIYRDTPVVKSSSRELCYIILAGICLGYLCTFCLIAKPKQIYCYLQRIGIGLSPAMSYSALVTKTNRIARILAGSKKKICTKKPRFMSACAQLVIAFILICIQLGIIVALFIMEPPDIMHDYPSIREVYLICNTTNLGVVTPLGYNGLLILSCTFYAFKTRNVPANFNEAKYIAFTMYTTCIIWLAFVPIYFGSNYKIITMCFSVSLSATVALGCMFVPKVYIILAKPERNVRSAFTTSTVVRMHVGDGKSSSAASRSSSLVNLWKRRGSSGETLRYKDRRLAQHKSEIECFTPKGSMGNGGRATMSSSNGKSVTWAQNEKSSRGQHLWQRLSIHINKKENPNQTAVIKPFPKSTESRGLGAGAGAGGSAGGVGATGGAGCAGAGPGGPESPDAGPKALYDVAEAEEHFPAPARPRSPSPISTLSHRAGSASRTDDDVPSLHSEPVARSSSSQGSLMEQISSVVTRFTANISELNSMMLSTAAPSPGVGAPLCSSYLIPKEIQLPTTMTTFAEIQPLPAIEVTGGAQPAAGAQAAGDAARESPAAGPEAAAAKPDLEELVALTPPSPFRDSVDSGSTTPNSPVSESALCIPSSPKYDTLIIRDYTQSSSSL

Regarding `Cn1nc2ccccc2c1C(=O)NC12CC3CC(CC(NC(=O)c4ccccn4)(C3)C1)C2` [Example 79, 2-Methyl-2H-indazole-3-carboxylic acid {3-[(pyridine-2-carbonyl)-amino]-adamantan-1-yl}-amide], the Ki on mGluR5 is 6 to 700 nM.
Take `Cc1cccc(C(=O)NC23CC4CC(CC(NC(=O)c5ccccn5)(C4)C2)C3)n1` [Example 72, 6-Methyl-pyridine-2-carboxylic acid {3-[(pyridine-2-carbonyl)-amino]-adamantan-1-yl}-amide]: on mGluR5, the Ki was 6 to 700 nM. Also, the Emax in experiment [1] was 63 to 99%.
For the compound `Cc1cncc(C(=O)NC23CC4CC(CC(NC(=O)c5cccc(F)c5)(C4)C2)C3)n1` [Example 96, 6-Methyl-pyrazine-2-carboxylic acid [3-(3-fluoro-benzoylamino)-adamantan-1-yl]-amide], on mGluR5, the inhibitory constant (Ki) was 6 to 700 nM. Moreover, the Emax in experiment [1] fell in the range of 63 to 99%.
In the same order, the values of `O=C(NC12CC3CC(C1)CC(NC(=O)c1nccs1)(C3)C2)c1ccccn1` [Example 74, Pyridine-2-carboxylic acid {3-[(thiazole-2-carbonyl)-amino]-adamantan-1-yl}-amide] are 6 to 700 nM and 63 to 99%.
Take `Cn1ccc2cc(C(=O)NC34CC5CC(C3)CC(NC(=O)c3ccccn3)(C5)C4)ccc21` [Example 69, 1-Methyl-1H-indole-5-carboxylic acid {3-[(pyridine-2-carbonyl)-amino]-adamantan-1-yl}-amide]: the Ki on mGluR5 is 6 to 700 nM. Besides, in experiment [1], the Emax is 63 to 99%.
In the same order, the values of `O=C(NC12CC3CC(C1)CC(NC(=O)c1ccccn1)(C3)C2)c1ccc2c(c1)CCN2` [Example 67, 2,3-Dihydro-1H-indole-5-carboxylic acid {3-[(pyridine-2-carbonyl)-amino]-adamantan-1-yl}-amide] are 6 to 700 nM and 63 to 99%.
For `Cc1nc2ccc(C(=O)NC34CC5CC(C3)CC(NC(=O)c3ccccn3)(C5)C4)cc2o1` [Example 65, 2-Methyl-benzoxazole-6-carboxylic acid {3-[(pyridine-2-carbonyl)-amino]-adamantan-1-yl}-amide], the Ki on mGluR5 was 6 to 700 nM. Besides, in experiment [1], the Emax fell in the range of 63 to 99%.
As for `Cc1cccc(C(=O)NC23CC4CC(C2)CC(NC(=O)c2cccc(NCCCO)n2)(C4)C3)n1` [Example 210, 6-(3-Hydroxy-propylamino)-pyridine-2-carboxylic acid {3-[(6-methyl-pyridine-2-carbonyl)-amino]-adamantan-1-yl}-amide], the Emax in experiment [1] was 63 to 99%.
Same read-out and setting: as for `Cc1cncc(C(=O)NC23CC4CC(C2)CC(NC(=O)c2cccc(C(F)(F)F)c2F)(C4)C3)n1` [Example 150, 6-Methyl-pyrazine-2-carboxylic acid [3-(2-fluoro-3-trifluoromethyl-benzoylamino)-adamantan-1-yl]-amide], the figure is 70 to 99%; as for `Cc1cccc(C(=O)NC23CC4CC(C2)CC(NC(=O)c2cccc(CC#N)n2)(C4)C3)n1` [Example 25, 6-Cyanomethyl-pyridine-2-carboxylic acid {3-[(6-methyl-pyridine-2-carbonyl)-amino]-adamantan-1-yl}-amide], 63 to 99%; as for `CC(=O)NCCNc1cccc(C(=O)NC23CC4CC(CC(NC(=O)c5cccc(C)n5)(C4)C2)C3)n1` [Example 234, 6-(2-Acetylamino-ethylamino)-pyridine-2-carboxylic acid {3-[(6-methyl-pyridine-2-carbonyl)-amino]-adamantan-1-yl}-amide], 63 to 99%.
As to `O=C(NC12CC3CC(C1)CC(NC(=O)c1ccc4ccccc4n1)(C3)C2)c1ccc2ccccc2n1` [Example 12, N,N′-(1,3-adamantylene)bis(quinoline-2-carboxamide)], the Emax in experiment [1] lay within 63 to 99%.
Same read-out and setting: then `Cc1cccc(C(=O)NC23CC4CC(C2)CC(NC(=O)c2cn5ccccc5n2)(C4)C3)n1` [Example 52, Imidazo[1,2-a]pyridine-2-carboxylic acid {3-[(6-methyl-pyridine-2-carbonyl)-amino]-adamantan-1-yl}-amide], with 63 to 99%.
Same read-out and setting: then `O=C(NC12CC3CC(C1)CC(NC(=O)c1ccncc1)(C3)C2)c1ccncc1` [Example 4, N,N′-(1,3-adamantylene)bis(4-pyridinecarboxamide)], with 90 to 99%; and `O=C(NC12CC3CC(C1)CC(NC(=O)c1ccccn1)(C3)C2)c1ccccc1` [Example 71, Pyridine-2-carboxylic acid (3-benzoylamino-adamantan-1-yl)-amide], with 63 to 99%.
As for `CN(C)CCN(C)c1cccc(C(=O)NC23CC4CC(CC(NC(=O)c5cccc(F)c5)(C4)C2)C3)n1` [Example 248, 6-[(2-Dimethylamino-ethyl)-methyl-amino]-pyridine-2-carboxylic acid [3-(3-fluoro-benzoylamino)-adamantan-1-yl]-amide], the Emax in experiment [1] is 63 to 99%.
For the compound `Cc1cncc(C(=O)NC23CC4CC(CC(NC(=O)c5ccnc(Br)c5)(C4)C2)C3)n1` [Example 178, 6-Methyl-pyrazine-2-carboxylic acid {3-[(2-bromo-pyridine-4-carbonyl)-amino]-adamantan-1-yl}-amide], in experiment [1], the Emax was in the range of 63 to 99%.
On to `Cc1cncc(C(=O)NC23CC4CC(CC(NC(=O)c5ccnc(F)c5)(C4)C2)C3)n1` [Example 160, 6-Methyl-pyrazine-2-carboxylic acid {3-[(2-fluoro-pyridine-4-carbonyl)-amino]-adamantan-1-yl}-amide], for which, in experiment [1], the Emax is 70 to 99%.
Still for that read-out and setting: then `Cc1cccc(C(=O)NC23CC4CC(C2)CC(NC(=O)c2cccc(N5CCC(O)CC5)n2)(C4)C3)n1` [Example 206, 4-Hydroxy-3,4,5,6-tetrahydro-2H-[1,2′]bipyridinyl-6′-carboxylic acid{3-[(6-methyl-pyridine-2-carbonyl)-amino]-adamantan-1-yl}-amide], with 63 to 99%; and `Cc1cccc(C(=O)NC23CC4CC(CC(NC(=O)c5ccncn5)(C4)C2)C3)n1` [Example 35, Pyrimidine-4-carboxylic acid {3-[(6-methyl-pyridine-2-carbonyl)-amino]-adamantan-1-yl}-amide], with 63 to 99%.
On the same count and under the same terms, as for `COCCCNc1cccc(C(=O)NC23CC4CC(CC(NC(=O)c5cccc(C)n5)(C4)C2)C3)n1` [Example 231, 6-(3-Methoxy-propylamino)-pyridine-2-carboxylic acid {3-[(6-methyl-pyridine-2-carbonyl)-amino]-adamantan-1-yl}-amide], the figure is 63 to 99%; as for `Cc1cccc(C(=O)NC23CC4CC(C2)CC(NC(=O)c2cc(C)n(C)n2)(C4)C3)n1` [Example 127, 6-Methyl-pyridine-2-carboxylic acid {3-[(1,5-dimethyl-1H-pyrazole-3-carbonyl)-amino]-adamantan-1-yl}-amide], 70 to 99%.
The same measure, in the same setting: then `O=C(NC12CC3CC(C1)CC(NC(=O)C1CCCCC1)(C3)C2)c1ccccn1` [Example 84, Pyridine-2-carboxylic acid [3-(cyclohexanecarbonyl-amino)-adamantan-1-yl]-amide], with 63 to 99%.
As for `CN(C)CCCN(C)c1cccc(C(=O)NC23CC4CC(CC(NC(=O)c5cccc(F)c5)(C4)C2)C3)n1` [Example 243, 6-[(3-Dimethylamino-propyl)-methyl-amino]-pyridine-2-carboxylic acid [3-(3-fluoro-benzoylamino)-adamantan-1-yl]-amide], the Emax in experiment [1] is 63 to 99%.
On the same count and under the same terms, then `O=C(NC12CC3CC(C1)CC(NC(=O)c1ccn4ccnc4c1)(C3)C2)c1cccc(F)c1` [Example 99, Imidazo[1,2-a]pyridine-7-carboxylic acid [3-(3-fluoro-benzoylamino)-adamantan-1-yl]-amide], with 63 to 99%; and `O=C(NC12CC3CC(C1)CC(NC(=O)c1ccncn1)(C3)C2)c1ccccn1` [Example 60, Pyrimidine-4-carboxylic acid {3-[(pyridine-2-carbonyl)-amino]-adamantan-1-yl}-amide], with 63 to 99%; and `Cc1cccc(C(=O)NC23CC4CC(C2)CC(NC(=O)c2cccc(F)n2)(C4)C3)n1` [Example 135, 6-Methyl-pyridine-2-carboxylic acid {3-[(6-fluoro-pyridine-2-carbonyl)-amino]-adamantan-1-yl}-amide], with 70 to 99%.
For the compound `O=C(NC12CC3CC(C1)CC(NC(=O)c1onc4ccccc14)(C3)C2)c1ccccn1` [Example 62, Benzo[c]isoxazole-3-carboxylic acid {3-[(pyridine-2-carbonyl)-amino]-adamantan-1-yl}-amide], the Emax in experiment [1] fell in the range of 63 to 99%.
As to `COCCCNc1cccc(C(=O)NC23CC4CC(CC(NC(=O)c5cccc(F)c5)(C4)C2)C3)n1` [Example 241, 6-(3-Methoxy-propylamino)-pyridine-2-carboxylic acid [3-(3-fluoro-benzoylamino)-adamantan-1-yl]-amide], the Emax in experiment [1] fell in the range of 63 to 99%.
